# Experimental data as given in patent publication US20150212064A1, “DEGRANULATION INDICATOR AND METHODS OF USE THEREOF” (priority 2011, published 2015).
# “Also recorded” adds a separate entry of the source.
# Assays:
# NK cell = settings: cited from earlier work
# PC12 chromaffin cells = settings: cited from earlier work
# [1] = system: NK cell cortical actin filaments; settings: cited from earlier work
# [2] = system: NK92 cells expressing pHlourin-LAMP1; assay: Live cell TIRFm of lytic granule motility and persistence in activated pHluorin-LAMP1 NK92 cells; type: cell-based, human; settings: for pre-degranulation motility of granules: 10 μM LatA added after 10 minutes, vs DMSO control; for number / accumulation of granules at the TIRF plane of the activated NK IS: LatA-treated cells, not quantified
# Experimental: For NK92 lytic granule motility studies, pHluorin-LAMP1 NK92 cells were suspended in dye free RPMI 10% FBS media at a concentration of 7.5×10^5 to 10^6 cells/ml and incubated with 100 nM LysoTracker® Red DND-99 (Invitrogen) at 37° C. for 30 minutes, washed, and resuspended in media. ΔT culture dishes (Bioptechs) were coated with […] anti-NKp30 and -CD18, incubated at 37° C. for 1 hour or 4 degrees overnight, washed with PBS, and pre-warmed with dye free RPMI 10% FBS media. NK92 cells were plated on ΔT culture dishes immediately prior to imaging, and temperature was maintained at 37° C. throughout the experiment using a ΔT culture dish heater and lid (Bioptechs).
# Cells were imaged in a single z-plane 10-15 minutes after addition to imaging chambers through an APO N TIRFm, oil immersion 60×1.49 NA objective using an Olympus IX-81 spinning disk confocal microscope with a rear-mounted TIRF illuminator and a Hamamatsu EM CCD C9100 camera. Excitation was by 480 nm (Spectra-Physics) and 561 nm (Cobalt) diode lasers through a LMM5 laser combiner unit (Spectral Applied Research). Cell image sequences were captured in TIRF mode at the interface between the cell and the glass over 60-80 minutes at 6 frames per minute using Volocity® software (PerkinElmer). Where indicated, cells were incubated with 10 μM LatA (Sigma) following 10 minutes of pre-incubation in the imaging chamber.
# For TIRFm analysis, image sequences were analyzed using Volocity® software (PerkinElmer). LysoTracker® Red and pHluorin positive events were identified and cropped in Volocity®. Object tracks were generated over time using the “track objects manually” function and the rectangular selection tool for each event; the track length, track velocity, displacement, and displacement rate of each lytic granule were measured for both LysoTracker® Red time points and pHluorin time points, and comparatively graphed on GraphPad Prism® Version 5.0 (GraphPad software). Overlays of lytic granule tracks were generated by the plotting of X and Y coordinate values from Volocity with GraphPad Prism® for both Lysotracker® Red and pHluorin. To measure the time persistence of LysoTracker® Red lytic granules within the TIRF field, the time of LysoTracker® Red emergence on the TIRF field was subtracted from the time of pHlourin appearance or LysoTracker® Red disappearance and multiplied by 60 to obtain time persistence in seconds.
# For LatA experiments, granules with both Lysotracker Red and pHluorin traces were identified and cropped in Volocity®. Objects were identified using a threshold of 3 SD above the mean field fluorescence for each timepoint to account for photobleaching using the “Find Objects Using SD Intensity” function. Objects smaller than 0.032 μm^2 were excluded from further analysis. Tracks were then generated using the “Track Objects” feature using the “Shortest Path” tracking model, and the track length, track velocity, displacement, displacement rate, and time span of each lytic granule tabulated and graphed using GraphPad Prism® software Version 5.0.
# The sum fluorescent intensity and area of each granule was also recorded at each timepoint. Using the initial appearance of pHluorin-LAMP1 as time zero, the average sum fluorescent intensity post-degranulation was calculated and graphed for lytic granules treated with DMSO vehicle control versus those treated with LatA. For area measurements, the borders of individual granules were defined as those above 3 SD.
# resting human NK cells = settings: cited from earlier work
# [3] = system: NK-92 cells expressing pHluorin-LAMP1; assay: Flow cytometry of green fluorescence of NK-92 cells expressing pHluorin-LAMP1; type: cell-based, human; settings: for pHluorin fluorescence: PMA 100 ng/mL and Ionomycin 1 μg/mL together for 30 minutes
# Experimental: Flow cytometry was performed to verify pHluorin-LAMP1 expression. Cells were untreated or treated with phorbol myristate acetate (PMA, 100 ng/mL,Sigma) and Ionomycin (1 μg/mL, Sigma) for 30 minutes or Concanamycin A (CMA, 100 nM, Sigma) for 90 minutes and samples were run on a Becton Dickinson FACSCalibur™.
# NK-92 cells = assay: Degranulation assay (Granzyme A activity, BLT esterase) of NK-92 cells activated by immobilized antibody to NKp30 and CD18; type: cell-based, human; settings: thapsigargin 1 μM, positive control
# Experimental: Immulon 4HBX 96 well flat bottom plates (Thermo) were coated with murine IgG (BD), anti-human NKp30, anti-human CD18, or both anti-NKp30 and anti-CD18 at 5 μg/mL in PBS overnight at 4° C. Plates were washed twice with PBS and blocked for 1 hr at room temperature with R10 media. One×10^5 cells were added to wells and plates were spun at 1000 rpm for two minutes before incubation at 37° C. For the timecourse degranulation assay, supernatants from spontaneous and activated wells were harvested at indicated times. For inhibitor treatments, media containing inhibitor or vehicle (DMSO) was added at indicated times. Inhibitors used were jasplakinolide (1 μM, Calbiochem), latrunculin A (10 μM, Sigma), cytochalasin D (10 μM, Sigma), and thapsigargin (1 μM, Calbiochem). Supernatatants were harvested after 60 minutes. For total release, cells were lysed in 0.5% Nonidet P40 (Accurate Chemical and Scientific). […] Samples were incubated for 30 minutes at 37° C. and absorbance was measured immediately at 405 nm. Percent total release was measured by subtracting the spontaneous release value from activated release values (A-S) and the total release value (T-S), and then dividing (A-S) by (T-S).
# neutrophils = settings: cited from earlier work
# [4] = 10 μM LatA, 12-18 tracks, normalized to DMSO control
structure (smiles),measurement,setting,value
"C/C1=C/C(=O)O[C@@H]2C[C@@H](CC[C@H](C)/C=C\C=C\CC1)O[C@@](O)([C@@H]1CSC(=O)N1)C2 [LatA, latrunculin A]",cytotoxic function,NK cell,abrogates cytotoxic function
same,expulsion of granule contents,PC12 chromaffin cells,more rapid expulsion of granule contents
same,depolymerization of cortical actin,[1],rapidly depolymerizes; also recorded: completely depolymerizes cortical actin
same,pre-degranulation motility of granules,[2],intact; also recorded: did not significantly affect granule movement prior to degranulation
same,pre-degranulation motility of granules,[2]; listed as Latrunculin A,did not affect pre-exocytosis movement
same,lytic granule total displacement,[2]; [4],no significant differences
same,lytic granule track length,[2]; [4],no significant differences
same,lytic granule velocity,[2]; [4],no significant differences
same,timespan of green fluorescence (persistence following exocytosis),"[2]; 10 μM LatA, control normalized to 1.0±0.56, p=0.0441",0.59±0.442
same,lifetime of red fluorescence (timespan pre-degranulation),"[2]; 10 μM LatA, control normalized to 1.0±0.87",1.1±0.61 AU
same,median time for 50% survival of granules following degranulation (Kaplan-Meier),"[2]; 10 μM LatA, control treated cells 28.8 minutes",13.7 min
same,area of granules post-degranulation,"[2]; LatA vs DMSO, over 40 minutes p<0.0001, truncated at 20 minutes p=0.4438",slightly greater area
same,sum fluorescent intensity (MFI*area) of granules post-degranulation,"[2]; LatA vs DMSO, up to forty minutes post-degranulation, p<0.0001 Mann Whitney U test",significantly greater sum fluorescent intensity (MFI*area) of granules from DMSO treated cells
same,number / accumulation of granules at the TIRF plane of the activated NK IS,[2],no observable defect in the number of granules that reached the TIRF plane
same,number / accumulation of granules at the TIRF plane of the activated NK IS,[2]; listed as Latrunculin A,gross accumulation of granules was not observed
C/C1=C/C(=O)O[C@@H]2C[C@@H](CC[C@H](C)/C=C\CC1)O[C@@](O)([C@@H]1CSC(=O)N1)C2 [Latrunculin B],movement of granules at the plasma membrane / cortex,resting human NK cells,arrests those granules constitutively found at the plasma membrane
same,numbers of granules at the plasma membrane,resting human NK cells,does not result in increased numbers of granules
"CCCCCCCCCCCCCC(=O)O[C@@H]1[C@@H](C)[C@@]2(O)[C@@H](C=C(CO)C[C@]3(O)C(=O)C(C)=C[C@@H]23)[C@@H]2C(C)(C)[C@]12OC(C)=O [PMA, phorbol myristate acetate]",pHluorin fluorescence,[3],rapid increase in pHluorin fluorescence
"C/C=C(/C)C(=O)O[C@H]1C(C)=C2[C@H]([C@@H]1OC(=O)CCCCCCC)[C@@](C)(OC(C)=O)C[C@H](OC(=O)CCC)[C@@]1(O)[C@H]2OC(=O)[C@@]1(C)O [Thapsigargin, thapsigargin]",effect on degranulation,NK-92 cells,positive effect on degranulation
"C/C=C/[C@H]1O[C@@](O)([C@@H](C)[C@H](O)[C@H](C)[C@H]2OC(=O)/C(OC)=C/C(C)=C/[C@@H](C)[C@@H](O)[C@@H](CC)[C@@H](O)[C@H](C)C/C(C)=C/C=C/[C@@H]2OC)C[C@@H](O[C@H]2C[C@@H](O)[C@H](OC(N)=O)[C@@H](C)O2)[C@@H]1C [concanamycin A, Concanamycin A]",green fluorescence measured by flow cytometry,[3]; Concanamycin A 100 nM for 90 minutes,robust increase in green fluorescence
C=C1[C@@H](C)[C@H]2[C@H](Cc3ccccc3)NC(=O)[C@]23[C@H](OC(C)=O)/C=C/[C@@](C)(O)C(=O)[C@@H](C)C/C=C/[C@H]3[C@@H]1O [cytochalasin D],accumulation of granules at the exocytic zone,neutrophils,seems to promote the accumulation of granules
same,movement of granules in the TIRF plane at the membrane,neutrophils,does not prevent movement of granules
"C[C@H](CCC(=O)O)C[C@H](C)C[C@H](C)C(=O)/C=C(\O)[C@H](C)C[C@H](C)C/C=C/[C@@H](C)[C@@H](O)[C@@H](C)[C@@H](O)C[C@@H]1CC[C@@](C)([C@H]2CC[C@@](C)([C@@H](C)O)O2)O1 [ionomycin, Ionomycin]",pHluorin fluorescence,[3],rapid increase in pHluorin fluorescence
COC(=O)Nc1nc2ccc(C(=O)c3cccs3)cc2[nH]1 [nocodazole],movement of granules at the plasma membrane / cortex,resting human NK cells,arrests the movement of granules at the cortex
